# Results published in patent US20230391786A1, “cGAS INHIBITORS” (Eli Lilly and Company, priority 2022, published 2023).
# What was measured:
# recombinant human cGAS = recombinant human cGAS (Homo sapiens (Human), UniProt Q8N884); assay: In vitro inhibition assay of cGAS activity (cGAMP production, RapidFire mass spectrometry); assay type: biochemical; settings: 10 nM recombinant human cGAS, 60 nM 75-bp dsDNA, ATP, GTP, room temperature 3 hours, read-out: IC50 (μM), In vitro inhibition assay for Compounds 95-348
# Outline: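 Product cGAMP was quantified by RapidFire MS against a difluoro-cGAMP internal standard after a formic acid quench. The reaction contained 10 nM recombinant full-length human cGAS, 75-bp dsDNA (60 nM), ATP and GTP (50 μM) and ran for 3 h at room temperature. IC50 values came from 4-parameter nonlinear regression.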
# [1] = tested on: cGAS activity in THP1 cells (IFNb as marker); assay: Cellular assay to measure cGAS activity (IFNb production in PMA-differentiated THP1 cells stimulated by RDG-Adenovirus-GFP); assay type: cell-based, human; settings: Homo sapiens, THP-1, THP1 cells, PMA differentiated, RDG-Adenovirus-GFP 1000 MOI, IFNb AlphaLISA, overnight incubation; read-out: IC50 (μM), Cellular assay for Compounds 95-348
# Outline: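 The readout is secreted IFNb measured by AlphaLISA after overnight compound exposure. THP1 cells, differentiated with PMA for 24 h and rested overnight, were infected with RDG-Adenovirus-GFP (1000 MOI, 4 h) before compounds were added; IC50 came from a 4-parameter logistic fit of inhibition against log concentration.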
# Chain of recombinant human cGAS (Q8N884 whole entry): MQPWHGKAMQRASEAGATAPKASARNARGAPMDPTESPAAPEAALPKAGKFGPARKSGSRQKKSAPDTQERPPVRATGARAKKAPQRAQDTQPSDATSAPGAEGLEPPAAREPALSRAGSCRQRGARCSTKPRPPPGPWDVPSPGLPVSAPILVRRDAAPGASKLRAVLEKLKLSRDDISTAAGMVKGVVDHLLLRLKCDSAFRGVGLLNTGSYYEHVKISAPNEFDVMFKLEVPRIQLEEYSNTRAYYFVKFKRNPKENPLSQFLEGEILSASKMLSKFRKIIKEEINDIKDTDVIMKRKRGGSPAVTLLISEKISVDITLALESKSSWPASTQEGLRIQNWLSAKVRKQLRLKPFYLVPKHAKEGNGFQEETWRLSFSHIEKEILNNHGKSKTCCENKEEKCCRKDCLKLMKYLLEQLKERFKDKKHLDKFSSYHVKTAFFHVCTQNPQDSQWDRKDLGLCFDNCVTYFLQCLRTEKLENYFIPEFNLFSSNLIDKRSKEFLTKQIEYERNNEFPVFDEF
IC50 (recombinant human cGAS),IC50 [1],Compound
0.076 µM,2.09 µM,"CCC(=O)NCc1[nH]c2c(Cl)c(Cl)ccc2c1-c1cn[nH]c1 [Example 163, N-[[6,7-Dichloro-3-(1H-pyrazol-4-yl)-1H-indol-2-yl]methyl]propanamide]"
0.052 µM,1.54 µM,"CCNc1cc(Cl)c(Cl)c2c1c(-c1cn[nH]c1)c1n2CCN(C(=O)CO)C1 [Example 148, 1-(6,7-Dichloro-9-(ethylamino)-10-(1H-pyrazol-4-yl)-3,4-dihydropyrazino[1,2-a]indol-2(1H)-yl)-2-hydroxyethan-1-one]"
0.0103 µM,0.426 µM,"CC(CO)COc1cc(Cl)c(Cl)c2[nH]cc(-c3cn[nH]c3)c12 (centres unmarked) [Example 125, 3-((6,7-Dichloro-3-(1H-pyrazol-4-yl)-1H-indol-4-yl)oxy)-2-methylpropan-1-ol]"
0.0563 µM,2.27 µM,"Clc1ccc2c(-c3cn[nH]c3)cn(-c3c[nH]nn3)c2c1 [Example 226, 6-Chloro-3-(1H-pyrazol-4-yl)-1-(1H-triazol-4-yl)indole]"
0.0931 µM,2.83 µM,"Cn1cc(-n2c(CO)c(-c3cn[nH]c3)c3ccc(Cl)c(Cl)c32)nn1 [Example 166, [6,7-Dichloro-1-(1-methyltriazol-4-yl)-3-(1H-pyrazol-4-yl)indol-2-yl]methanol]"
0.0379 µM,> 10 µM,"COCCOCC(=O)N1CCn2c(c(-c3cn[nH]c3)c3ccc(Cl)c(Cl)c32)C1 [Example 306, 1-(6,7-Dichloro-10-(1H-pyrazol-4-yl)-3,4-dihydropyrazino[1,2-a]indol-2(1H)-yl)-2-(2-methoxyethoxy)ethan-1-one]"
0.00433 µM,1.47 µM,"OCCCNc1cc(Cl)c(Cl)c2[nH]cc(-c3cn[nH]c3)c12 [Example 144, 3-[[6,7-Dichloro-3-(1H-pyrazol-4-yl)-1H-indol-4-yl]amino]propan-1-ol]"
0.0462 µM,> 10 µM,"CC(=O)N1CCOC(CC(=O)N2CCn3c(c(-c4cn[nH]c4)c4ccc(Cl)c(Cl)c43)C2)C1 (single isomer, unassigned) [Example 264, 2-(4-acetylmorpholin-2-yl)-1-(6,7-dichloro-10-(1H-pyrazol-4-yl)-3,4-dihydropyrazino[1,2-a]indol-2(1H)-yl)ethan-1-one]"
0.0106 µM,4.27 µM,"Cn1cnc(C(=O)N2CCn3c(c(-c4cn[nH]c4)c4c(OCC#N)cc(Cl)c(Cl)c43)C2)n1 [Example 283, 2-((6,7-Dichloro-2-(1-methyl-1H-1,2,4-triazole-3-carbonyl)-10-(1H-pyrazol-4-yl)-1,2,3,4-tetrahydropyrazino[1,2-a]indol-9-yl)oxy)acetonitrile]"
0.0486 µM,> 10 µM,"N#CCNc1cc(Cl)c(Cl)c2c1c(-c1cn[nH]c1)c1n2CCNC1=O [Example 135, 2-[[6,7-Dichloro-1-oxo-10-(1H-pyrazol-4-yl)-3,4-dihydro-2H-pyrazino[1,2-a]indol-9-yl]amino]acetonitrile]"
0.0468 µM,> 10 µM,"O=C(Cn1ccnc1)N1CCn2c(c(-c3cn[nH]c3)c3ccc(Cl)c(Cl)c32)C1 [Example 111, 1-[6,7-Dichloro-10-(1H-pyrazol-4-yl)-3,4-dihydro-1H-pyrazino[1,2-a]indol-2-yl]-2-imidazol-1-yl-ethanone]"
0.0561 µM,2.14 µM,"N#CCOc1cc(Cl)c(Cl)c2c1c(-c1cn[nH]c1)c1n2CCN(C(=O)c2nccnc2C(=O)N2CCCCC2)C1 [Example 295, 2-((6,7-Dichloro-2-(3-(piperidine-1-carbonyl)pyrazine-2-carbonyl)-10-(1H-pyrazol-4-yl)-1,2,3,4-tetrahydropyrazino[1,2-a]indol-9-yl)oxy)acetonitrile]"
0.0764 µM,3.42 µM,"CC(=O)NCCn1cc(-c2cn[nH]c2)c2c(OCC#N)cc(Cl)c(Cl)c21 [Example 136, N-[2-[6,7-Dichloro-4-(cyanomethoxy)-3-(1H-pyrazol-4-yl)indol-1-yl]ethyl]acetamide]"
0.0249 µM,1.72 µM,"CC(=O)N[C@@H]1CCn2c1c(-c1cn[nH]c1)c1c(OCC#N)cc(Cl)c(Cl)c12 [Example 234, (R)—N-(5,6-Dichloro-8-(cyanomethoxy)-9-(1H-pyrazol-4-yl)-2,3-dihydro-1H-pyrrolo[1,2-a]indol-1-yl)acetamide]"
0.033 µM,0.726 µM,"COCCN1CCn2c(c(-c3cn[nH]c3)c3c(NC(=O)C(F)F)cc(Cl)c(Cl)c32)C1=O [Example 252, N-[6,7-Dichloro-2-(2-methoxyethyl)-1-oxo-10-(1H-pyrazol-4-yl)-3,4-dihydropyrazino[1,2-a]indol-9-yl]-2,2-difluoro-acetamide]"
0.0427 µM,> 10 µM,"CN1CCOCC1C(=O)N1CCn2c(c(-c3cn[nH]c3)c3ccc(Cl)c(Cl)c32)C1 (centres unmarked) [Example 309, (6,7-Dichloro-10-(1H-pyrazol-4-yl)-3,4-dihydropyrazino[1,2-a]indol-2(1H)-yl)(4-methylmorpholin-3-yl)methanone]"

IC50 (recombinant human cGAS),IC50 [1],Compound
0.00677 µM,0.374 µM,"Cc1nnc(N2CCn3c(c(-c4cn[nH]c4)c4c(OCC#N)cc(Cl)c(Cl)c43)C2)s1 [Example 203, 2-((6,7-Dichloro-2-(5-methyl-1,3,4-thiadiazol-2-yl)-10-(1H-pyrazol-4-yl)-1,2,3,4-tetrahydropyrazino[1,2-a]indol-9-yl)oxy)acetonitrile]"
0.0321 µM,6.97 µM,"N#CCOc1cc(Cl)c(Cl)c2c1c(-c1cn[nH]c1)c1n2CCN(C(=O)CN2CCOCC2=O)C1 [Example 290, 2-((6,7-Dichloro-2-(2-(3-oxomorpholino)acetyl)-10-(1H-pyrazol-4-yl)-1,2,3,4-tetrahydropyrazino[1,2-a]indol-9-yl)oxy)acetonitrile]"
0.0281 µM,0.331 µM,"OCc1nnc(-c2[nH]c3c(Cl)c(Cl)ccc3c2-c2cn[nH]c2)o1 [Example 157, (5-(6,7-Dichloro-3-(1H-pyrazol-4-yl)-1H-indol-2-yl)-1,3,4-oxadiazol-2-yl)methanol]"
0.0378 µM,> 10 µM,"CN1CC(C(=O)N2CCn3c(c(-c4cn[nH]c4)c4ccc(Cl)c(Cl)c43)C2)CCC1=O (centres unmarked) [Example 305, 5-(6,7-Dichloro-10-(1H-pyrazol-4-yl)-1,2,3,4-tetrahydropyrazino[1,2-a]indole-2-carbonyl)-1-methylpiperidin-2-one]"
0.0679 µM,3.27 µM,"OCCn1cc(-n2cc(-c3cn[nH]c3)c3ccc(Cl)c(F)c32)nn1 [Example 218, 2-[4-[6-Chloro-7-fluoro-3-(1H-pyrazol-4-yl)indol-1-yl]triazol-1-yl]ethanol]"
0.029 µM,0.216 µM,"Cc1nnc(-c2[nH]c3c(Cl)c(Cl)ccc3c2-c2cn[nH]c2)o1 [Example 127, 2-(6,7-Dichloro-3-(1H-pyrazol-4-yl)-1H-indol-2-yl)-5-methyl-1,3,4-oxadiazole]"
0.0401 µM,9.93 µM,"O=C(Cc1ccn[nH]1)N1CCn2c(c(-c3cn[nH]c3)c3ccc(Cl)c(Cl)c32)C1 [Example 266, 1-[6,7-Dichloro-10-(1H-pyrazol-4-yl)-3,4-dihydro-1H-pyrazino[1,2-a]indol-2-yl]-2-(1H-pyrazol-5-yl)ethanone]"
0.0325 µM,4.91 µM,"CN1CC(C(=O)N2CCn3c(c(-c4cn[nH]c4)c4c(OCC#N)cc(Cl)c(Cl)c43)C2)CC1=O (centres unmarked) [Example 291, 2-((6,7-Dichloro-2-(1-methyl-5-oxopyrrolidine-3-carbonyl)-10-(1H-pyrazol-4-yl)-1,2,3,4-tetrahydropyrazino[1,2-a]indol-9-yl)oxy)acetonitrile]"
0.0379 µM,1.29 µM,"OCC(CO)CNc1cc(Cl)c(Cl)c2[nH]cc(-c3cn[nH]c3)c12 [Example 192, 2-[[[6,7-Dichloro-3-(1H-pyrazol-4-yl)-1H-indol-4-yl]amino]methyl]propane-1,3-diol]"
0.0298 µM,1.23 µM,"CC(=O)NCCn1cc(-c2cn[nH]c2)c2c(NCCCO)cc(Cl)c(Cl)c21 [Example 195, N-[2-[6,7-Dichloro-4-(3-hydroxypropylamino)-3-(1H-pyrazol-4-yl)indol-1-yl]ethyl]acetamide]"
0.0416 µM,> 10 µM,"CN(C)C(=O)NCC(=O)N1CCn2c(c(-c3cn[nH]c3)c3ccc(Cl)c(Cl)c32)C1 [Example 182, 3-[2-[6,7-Dichloro-10-(1H-pyrazol-4-yl)-3,4-dihydro-1H-pyrazino[1,2-a]indol-2-yl]-2-oxo-ethyl]-1,1-dimethyl-urea]"
0.0276 µM,0.8 µM,"COc1cc2c(-c3cn[nH]c3)cn(-c3cccnn3)c2cc1Cl [Example 341, 6-Chloro-5-methoxy-3-(1H-pyrazol-4-yl)-1-(pyridazin-3-yl)-1H-indole]"
0.0642 µM,> 10 µM,"COCCC(=O)NC1CCn2c1c(-c1cn[nH]c1)c1ccc(Cl)c(Cl)c12 (centres unmarked) [Example 240, N-(5,6-Dichloro-9-(1H-pyrazol-4-yl)-2,3-dihydro-1H-pyrrolo[1,2-a]indol-1-yl)-3-methoxypropanamide]"
0.026 µM,2.41 µM,"O=C(CO)NC1Cc2c(-c3cn[nH]c3)c3ccc(Cl)c(Cl)c3n2C1 (centres unmarked) [Example 154, N-(5,6-Dichloro-9-(1H-pyrazol-4-yl)-2,3-dihydro-1H-pyrrolo[1,2-a]indol-2-yl)-2-hydroxyacetamide]"
0.0385 µM,1.13 µM,"FC(F)COc1cc(Cl)c(Cl)c2[nH]cc(-c3cn[nH]c3)c12 [Example 184, 6,7-Dichloro-4-(2,2-difluoroethoxy)-3-(1H-pyrazol-4-yl)-1H-indole]"
